This is an account of results in patent publication US12522596B2, “Compounds as GLP-1R agonists” (Terns Pharmaceuticals, Inc., priority 2021, dated 2026).

The target of the test is T1, human GLP-1R receptor (Homo sapiens, UniProt P43220).
T1 construct: expressed in transfected cells
Briefly: GLP-1R low expression cell assay (cAMP TR-FRET, CHO-K1_hGLP-1Rlow_clone10). Type of test: cell-based. As to conditions: CHO-K1_hGLP-1Rlow_clone10 cells. How it is done: Stable cell lines expressing high and low GLP-1R surface expression were generated in CHO-K1 cells transfected (Fugene 6) with a puromycin selectable DNA plasmid encoding human GLP-1R receptor (accession number: NM_002062.5) under control of an EF1A promoter. Transfected cells were seeded into 24-well plates (9,000 cells/well) containing complete medium and incubated in a humidified incubator at 37° C. with 5% carbon dioxide. After overnight incubation, medium was replaced with complete medium supplemented with puromycin (6 μg/mL) and refreshed every 2-3 days to select for stably transfected cells. Individual pools of selected cells were expanded prior to analysis for responsiveness to GLP-1 control peptide using a TR-FRET assay to detect cAMP (LANCE Ultra CAMP Assay, Perkin Elmer). Briefly, cells were collected in Versene solution, plated in 384-well plates (1,000 cells/well) and combined with serially diluted GLP-1R control peptide (10 nL) using an acoustic dispenser (ECHO). Plates were incubated for 30 minutes at 25° C. prior to the addition of EU-CAMP tracer (5 μL) and Ulight-anti-cAMP (5 μL) reagents to each well, followed by 15 minutes incubation at 25° C. TR-FRET signal was detected using an En Vision Multimode Plate Reader (excitation=320 nm; emission=615 and 655 nm). Dose-response curves were used to generate EC50 values as a measure of responsiveness to the GLP-1R control peptide. Selected cell lines were monitored for responsiveness over multiple passages to ensure stability. […] Briefly, GLP-1R expression was analyzed by flow cytometry using a fluorescein-labeled Exendin-4 peptide fluorescent probe (FLEX). Cells were harvested in Versene solution and washed 3-times with PBS+0.5% BSA before incubation with FLEX reagent (10 μM) for 2 hours at room temperature. After incubation, cells were washed 3-times in PBS+0.5% BSA before final resuspension in PBS prior to analysis by flow cytometry to measure FLEX mean fluorescence intensity (MFI) as a measure of GLP-1R expression on the cell surface.
For compound testing in the CHO-K1_hGLP-1Rlow_clone10 cell line, cells were seeded in 384-well plates (1,000 cells/well). Test compounds were serially diluted in DMSO (10-point, 3-fold dilution), added to wells using an ECHO dispenser (10 nL/well) and plates were centrifuged for 1 min and agitated for 2 min at room temperature prior to 30-minute incubation at 25° C. After incubation, Eu-CAMP (5 μL) and Ulight-anti-cAMP (5 μL) reagents were added to each well, followed by centrifugation for 1 minute, agitation for 2 minutes at room temperature, and final incubation of the plates at 25° C. for 15 minutes. Plates were read using an EnVision microplate reader (excitation=320 nm; emission=615 and 655 nm). Dose-response curves were generated from duplicate wells based on percent activation calculated relative to a control GLP-1 peptide agonist that was run in parallel. EC50 values were determined by fitting percent activation as a function of compound concentration using the Hill equation (XLfit).
Stable cell lines expressing high and low GLP-1R surface expression were generated in CHO-K1 cells transfected (Fugene 6) with a puromycin selectable DNA plasmid encoding human GLP-1R receptor (accession number: NM_002062.5) under control of an EF1A promoter. Transfected cells were seeded into 24-well plates (9,000 cells/well) containing complete medium and incubated in a humidified incubator at 37° C. with 5% carbon dioxide. After overnight incubation, medium was replaced with complete medium supplemented with puromycin (6 μg/mL) and refreshed every 2-3 days to select for stably transfected cells. Individual pools of selected cells were expanded prior to analysis for responsiveness to GLP-1 control peptide using a TR-FRET assay to detect cAMP (LANCE Ultra CAMP Assay, Perkin Elmer).
(In TR-FRET formats the signal depends on donor and acceptor labels being close together.)

T1 sequence (P43220 24-463): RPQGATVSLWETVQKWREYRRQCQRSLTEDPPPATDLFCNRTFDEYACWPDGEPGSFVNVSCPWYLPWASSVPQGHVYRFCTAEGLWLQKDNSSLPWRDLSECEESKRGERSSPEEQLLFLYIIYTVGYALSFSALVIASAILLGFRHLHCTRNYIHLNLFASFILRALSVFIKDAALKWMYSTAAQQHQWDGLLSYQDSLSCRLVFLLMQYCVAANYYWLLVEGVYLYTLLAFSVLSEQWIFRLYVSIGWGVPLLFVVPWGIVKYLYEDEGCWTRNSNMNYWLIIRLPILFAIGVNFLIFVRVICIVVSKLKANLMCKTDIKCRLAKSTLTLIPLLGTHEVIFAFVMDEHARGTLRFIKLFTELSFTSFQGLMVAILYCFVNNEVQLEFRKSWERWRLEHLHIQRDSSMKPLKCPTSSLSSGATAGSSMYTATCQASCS

For orientation: EC50 means the concentration needed to bring the measured effect to its halfway point. High values mean weaker potency, low ones greater potency. As for `CC1(c2ccc(C#N)cc2F)Oc2cccc(C3CCN(Cc4nc5ccc(C(=O)O)cc5n4Cc4cncs4)CC3)c2O1` (centres unmarked) [Compound 31], the response was half-maximal at 0.6 nM (EC50). Turning to `N#Cc1ccc(COc2cccc(N3CCN(Cc4nc5ccc(C(=O)O)cc5n4Cc4cncs4)CC3)n2)c(F)c1` [Compound 30], a half-maximal response (EC50) required 1.7 nM. The value for `Cc1ncsc1Cn1c(CN2CCC(c3cccc(OCc4ccc(C#N)cc4F)n3)CC2)nc2ccc(C(=O)O)cc21` [Compound 4] was 2.5 nM; that for `N#Cc1ccc(COc2ccnc(C3CCN(Cc4nc5ccc(C(=O)O)cc5n4Cc4cncs4)CC3)n2)c(F)c1` [Compound 20] was 9.4 nM.

For `N#Cc1ccc(COc2cccc(C3CCN(Cc4nc5ccc(C(=O)O)cc5n4Cc4cncs4)CC3)n2)c(F)c1` [Compound 2], the EC50 is 3.1 nM.
